Read-outs that look alike come from different tables or passages of the source.
Tests used:
[1] = test system: human cytomegalovirus (HCMV); assay: microbe, parasite or virus in culture; format: cell-based; settings: read-out: Antiviral activity, IC50 HCMV
in vitro = settings: human
cowpox virus = assay: microbe, parasite or virus in culture; format: cell-based; settings: read-out: Antiviral activity, IC50 Cowpox
vaccinia virus = assay: microbe, parasite or virus in culture; format: cell-based; settings: read-out: Antiviral activity, IC50 Vaccinia
[2] = Human betaherpesvirus 5, HFF, 240 h
[3] = Orthopoxvirus vaccinia, HFF, 72 h

Structure (SMILES) | IC50 [1, 2] [nM] | CC50 (in vitro) [µM] | IC50 (cowpox virus; Cowpox virus, HFF, 72 h) [µM] | IC50 (vaccinia virus; [3]) [nM] | IC50 [1] [nM] | CC50 (KB cells) [µM] | IC50 (cowpox virus) [µM] | IC50 (vaccinia virus) [nM]
CCCCCCCCCCCCNC(=O)[C@@H](N)Cc1ccc(OP(=O)(O)CO[C@H](CO)Cn2cnc3c(N)ncnc32)cc1 [Compound 9b, O-[([[(2S)-1-(6-Amino-9H-purin-9-yl)-3-hydroxypropan-2-yl]oxy]methyl)(hydroxy)-phosphoryl]-N-dodecyl-(L)-tyrosinamide] | < 0.001 | 15 | – | – | – | – | – | –
CCCCCCCCCCCCCCNC(=O)[C@@H](N)Cc1ccc(OP(=O)(O)CO[C@H](CO)Cn2cnc3c(N)ncnc32)cc1 [Compound 9c, O-[([[(2S)-1-(6-Amino-9H-purin-9-yl)-3-hydroxypropan-2-yl]oxy]methyl)(hydroxy)-phosphoryl]-N-tetradecyl-(L)-tyrosinamide] | < 0.001 | 20 | – | – | – | – | – | –
CCCCCCCCCCCCCCNC(=O)[C@@H](N)Cc1ccc(OP2(=O)CO[C@@H](Cn3cnc4c(N)ncnc43)CO2)cc1 (stereo partly drawn) [Compound 8c, O-[(5S)-5-[(6-Amino-9H-purin-9-yl)methyl]-2-oxido-1,4,2-dioxaphosphinan-2-yl]-N-tetradecyl-(L)-tyrosinamide] | < 0.001 | 15 | – | – | – | – | – | –
CCCCCCCCCCCCCCCCNC(=O)[C@@H](N)Cc1ccc(OP(=O)(O)COCCn2cnc3c(N)ncnc32)cc1 [Compound 14b, O-[{[2-(6-Amino-9H-purin-9-yl)ethoxy]methyl}(hydroxy)phosphoryl]-N-hexadecyl-L-tyrosinamide] | 2500 | 15 | 20 | 4000 | – | – | – | –
CCCCCCCCCCCCCCCCNC(=O)[C@@H](N)Cc1ccc(OP(=O)(O)CO[C@H](CO)Cn2ccc(N)nc2=O)cc1 [Compound 9f, O-[([[(2S)-1-(4-amino-2-oxopyrimidin-(2H)-yl)-3-hydroxypropan-2-yl]oxy]methyl)-(hydroxy)phosphoryl]-N-hexadecyl-(L)-tyrosinamide] | – | – | – | – | < 0.001 | 90 | – | –
CCCCCCCCCCCCCCCCNC(=O)[C@@H](N)Cc1ccc(OP2(=O)CO[C@@H](Cn3cnc4c(N)ncnc43)CO2)cc1 (stereo partly drawn) [Compound 8d, O-[(5S)-5-[(6-Amino-9H-purin-9-yl)methyl]-2-oxido-1,4,2-dioxaphosphinan-2-yl]-N-hexadecyl-(L)-tyrosinamide] | < 0.001 | 11 | < 0.1 | 6 | – | – | – | –
Nc1ncnc2c1ncn2CCOCP(=O)(O)O [PMEA, reference compound] | – | – | – | – | 25000 | > 100 | > 100 | > 100000
CCCCCCCCNC(=O)[C@@H](N)Cc1ccc(OP2(=O)CO[C@@H](Cn3cnc4c(N)ncnc43)CO2)cc1 (stereo partly drawn) [Compound 8a, O-[(5S)-5-[(6-Amino-9H-purin-9-yl)methyl]-2-oxido-1,4,2-dioxaphosphinan-2-yl]-N-octyl-(L)-tyrosinamide] | 300 | 100 | 3 | 1500 | – | – | – | –
Nc1nc(O)c2ncn(COC(CO)CO)c2n1 [DHPG, Ganciclovir, reference compound] | 3000 | – | – | – | – | – | – | –
CCCCCCCCNC(=O)[C@@H](N)Cc1ccc(OP(=O)(O)CO[C@H](C)Cn2cnc3c(N)nc(N)nc32)cc1 [Compound 15a, O-[({[(2R)-1-(2,6-diamino-9H-purin-9-yl)propan-2-yl]oxy}methyl)(hydroxy)phosphoryl]-N-octyl-L-tyrosinamide] | > 100000 | > 100 | > 100 | > 100000 | – | – | – | –
Nc1ncnc2c1ncn2C[C@@H](CO)OCP(=O)(O)O [(S)-HPMPA, (S)-9-(3hydroxy-2-phosphonyl-methoxypropyl)adenine, reference compound] | – | – | – | – | 6000 | > 100 | 20 | 2500
Nc1ccn(C[C@@H](CO)OCP(=O)(O)O)c(=O)n1 [(S)-HPMPC, cidofovir, reference compound] | 300 | > 100 | 25 | 10000 | – | – | – | –
CCCCCCCCNC(=O)[C@@H](N)Cc1ccc(OP(=O)(O)CO[C@H](CO)Cn2cnc3c(N)ncnc32)cc1 [Compound 9a, O-[([[(2S)-1-(6-Amino-9H-purin-9-yl)-3-hydroxypropan-2-yl]oxy]methyl)(hydroxy)-phosphoryl]-N-octyl-(L)-tyrosinamide] | < 100 | – | – | – | – | – | – | –
CCCCCCCCCCCCCCCCCCNC(=O)[C@@H](N)Cc1ccc(OP(=O)(O)CO[C@H](CO)Cn2cnc3c(N)ncnc32)cc1 [Compound 9e, O-[([[(2S)-1-(6-Amino-9H-purin-9-yl)-3-hydroxypropan-2-yl]oxy]methyl)-(hydroxy)-phosphoryl]-N-octadecyl-(L)-tyrosinamide] | < 0.001 | 10 | – | – | – | – | – | –
CCCCCCCCCCCCCCCCCCNC(=O)[C@@H](N)Cc1ccc(OP2(=O)CO[C@@H](Cn3cnc4c(N)ncnc43)CO2)cc1 (stereo partly drawn) [Compound 8e, O-[(5S)-5-[(6-Amino-9H-purin-9-yl)methyl]-2-oxido-1,4,2-dioxaphosphinan-2-yl]-N-octadecyl-(L)-tyrosinamide] | < 0.001 | 10 | – | – | – | – | – | –
CCCCCCCCNC(=O)[C@@H](N)Cc1ccc(OP(=O)(O)COCCn2cnc3c(N)ncnc32)cc1 [Compound 14a, O-[{[2-(6-Amino-9H-purin-9-yl)ethoxy]methyl}(hydroxy)phosphoryl]-N-octyl-L-tyrosinamide] | 35000 | 100 | > 100 | 50000 | – | – | – | –
CCCCCCCCCCCCNC(=O)[C@@H](N)Cc1ccc(OP2(=O)CO[C@@H](Cn3cnc4c(N)ncnc43)CO2)cc1 (stereo partly drawn) [Compound 8b, O-[(5S)-5-[(6-Amino-9H-purin-9-yl)methyl]-2-oxido-1,4,2-dioxaphosphinan-2-yl]-N-dodecyl-(L)-tyrosinamide] | < 0.001 | 15 | – | – | – | – | – | –
CC(=NNC(N)=S)c1ccccn1 [Compound 3L, 2-Acetylpyridine thiosemicarbazone, reference compound] | – | 2 | – | – | – | – | – | –
Nc1ncnc2c1ncn2C[C@H]1COP(=O)(O)CO1 [(S)-cHPMPA, reference compound] | – | – | – | – | 1500 | > 100 | 2.5 | 1000
CCCCCCCCCCCCCCCCNC(=O)[C@@H](N)Cc1ccc(OP2(=O)CO[C@@H](Cn3ccc(N)nc3=O)CO2)cc1 (stereo partly drawn) [Compound 8f, O-[(5S)-5-[(4-amino-2-oxopyrimidin-1(2H)-yl)methyl]-2-oxido-1,4,2-dioxaphosphinan-2-yl]-N-hexadecyl-(L)-tyrosinamide] | < 0.001 | 15 | – | – | – | – | – | –
C[C@H](Cn1cnc2c(N)nc(N)nc21)OCP(=O)(O)O [(R)-PMPDAP, reference compound] | – | – | – | – | > 100000 | > 100 | > 100 | > 100000
CCCCCCCCCCCCCCCCNC(=O)[C@@H](N)Cc1ccc(OP(=O)(O)CO[C@H](CO)Cn2cnc3c(N)ncnc32)cc1 [Compound 9d, O-[([[(2S)-1-(6-Amino-9H-purin-9-yl)-3-hydroxypropan-2-yl]oxy]methyl)(hydroxy)-phosphoryl]-N-hexadecyl-(L)-tyrosinamide] | < 0.001 | 15 | < 0.1 | 3 | – | – | – | –
